Test results: US11884687B2, “Boronated multifunctional targeting drug conjugates, their uses and methods for their preparation” (Hovione Scientia Limited, priority 2017, dated 2024)

Key:
4T1 = assay: MTS cell viability assay (4T1); format: cell-based; settings: Mus musculus, 4T1 cells
[1] = system: MDA-MB-231 human breast cancer cells; assay: MTS cell viability assay (MDA-MB-231); format: cell-based; settings: folate-receptor-positive MDA-MB-231 cells
[2] = in vivo; cited from earlier work

| IC50 (4T1) [nM] | IC50 ([1]; Homo sapiens) [nM] | Compound | IC50 [1] [nM] | LD50 [2] [mg/kg] |
| --- | --- | --- | --- | --- |
| 670 | > 100 | COCCOCCOCCOc1ccc2c(c1)C(C)=[N+]1c3ccc(C(=O)NCCN=[N+]=[N-])cc3O[B-]1([C@H](CC(C)C)NC(=O)[C@@H](Cc1ccccc1)NC(=O)c1cnccn1)O2 (stereo partly shown) [B-complex 7] | – | – |
| – | – | COCCOCCOCCOc1ccc2c(c1)C(C)=[N+]1c3ccc(C(=O)NCCn4nnc5c4CC[C@H]4[C@@H](CC5)[C@H]4COC(=O)NCCNC(=O)CCC(NC(=O)c4ccc(NCc5cnc6nc(N)[nH]c(=O)c6n5)cc4)C(=O)O)cc3O[B-]1([C@H](CC(C)C)NC(=O)[C@@H](Cc1ccccc1)NC(=O)c1cnccn1)O2 (stereo partly shown) [B-complex 8] | 67.5 | – |
| 7250 | > 100 | CC1=[N+]2c3ccc(C(=O)NCCOCCOCCOCCN=[N+]=[N-])cc3O[B-]2([C@H](CC(C)C)NC(=O)[C@@H](Cc2ccccc2)NC(=O)c2cnccn2)Oc2ccc(OCCOCCOCCOCCN=[N+]=[N-])cc21 (stereo partly shown) [B-complex 9] | – | – |
| – | – | CC1=[N+]2c3ccc(C(=O)NCCOCCOCCOCCn4nnc5c4CCC4C(CC5)[C@@H]4COC(=O)NCCNC(=O)CC[C@H](NC(=O)c4ccc(NCc5cnc6nc(N)[nH]c(=O)c6n5)cc4)C(=O)O)cc3O[B-]2([C@H](CC(C)C)NC(=O)[C@@H](Cc2ccccc2)NC(=O)c2cnccn2)Oc2ccc(OCCOCCOCCOCCn3nnc4c3CC[C@H]3[C@@H](CC4)[C@H]3COC(=O)NCCNC(=O)CC[C@H](NC(=O)c3ccc(NCc4cnc5nc(N)[nH]c(=O)c5n4)cc3)C(=O)O)cc21 (stereo partly shown) [B-complex 10] | 62 | – |
| – | – | [Cl-].[Na+] [table salt] | – | 3000 |
